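Each compound was tested at five concentrations against cells in 96-well plates for 48 hours. TGI marks complete inhibition of growth.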
Key:
Assay in all cases: NCI-60 cell line screen, 48 h
[1] = system: 786-0 renal
[2] = system: A498 renal
[3] = system: A549 NSCLC
[4] = system: ACHN renal
[5] = system: BT-549 breast
[6] = system: CAKI-1 renal
[7] = system: CCRF-CEM leukemia
[8] = system: COLO 205 colon
[9] = system: DU-145 prostate
[10] = system: EKVX NSCLC
[11] = system: HCC-2998 colon
[12] = system: HCT-116 colon
[13] = system: HCT-15 colon
[14] = system: HL-60(TB) leukemia
[15] = system: HOP-62 NSCLC
[16] = system: HOP-92 NSCLC
[17] = system: HS 578T breast
[18] = system: HT29 colon
[19] = system: IGROV1 ovarian
[20] = system: K-562 leukemia
[21] = system: KM12 colon
[22] = system: LOX IMVI melanoma
[23] = system: M14 melanoma
[24] = system: MALME-3M melanoma
[25] = system: MCF7 breast
[26] = system: MDA-MB-231 breast
[27] = system: MDA-MB-435
[28] = system: MOLT-4 leukemia
[29] = system: NCI-H226 lung
[30] = system: NCI-H23 lung
[31] = system: NCI-H460 lung
[32] = system: NCI-H522 lung
[33] = system: NCI/ADR-RES ovarian
[34] = system: OVCAR-3 ovarian
[35] = system: OVCAR-4 ovarian
[36] = system: OVCAR-5 ovarian
[37] = system: OVCAR-8 ovarian
[38] = system: PC-3 prostate
[39] = system: RPMI-8226 leukemia
[40] = system: RXF 393 renal
[41] = system: SF-268 CNS
[42] = system: SF-295 CNS
[43] = system: SF-539 CNS
[44] = system: SK-MEL-2 melanoma
[45] = system: SK-MEL-5 melanoma
[46] = system: SK-OV-3 ovarian
[47] = system: SN12C renal
[48] = system: SNB-19 CNS
[49] = system: SNB-75 CNS
[50] = system: SR leukemia
[51] = system: SW-620 colon
[52] = system: T-47D breast
[53] = system: TK-10 renal
[54] = system: U251 CNS
[55] = system: UACC-257 melanoma
[56] = system: UACC-62 melanoma
[57] = system: UO-31 renal

Measured: TGI

O=[N+]([O-])c1ccc(C2Nn3c(nnc3-c3cccc([N+](=O)[O-])c3)S2)cc1 (configuration not stated)
> 100 µM: all assays above
